From ChEMBL document CHEMBL4840338, “Cudraflavone C from Artocarpus hirsutus as a Promising Inhibitor of Pathogenic, Multidrug-Resistant S. aureus, Persisters, and Biofilms: A New Insight into a Rational Explanation of Traditional Wisdom” (J Nat Prod, 2021) come the findings set out here.

Values after ≈ are worked out from the molar mass of the structure shown. Active and inactive are the calls of the source. No cut-off for these calls is given here. Bounds are passed on as bounds.

Test [1] deals with Staphylococcus aureus. Put plainly: microbe, parasite or virus in culture. The settings on record: ATCC 29213.
Description: Antibacterial activity against Staphylococcus aureus ATCC 29213 assessed as bacterial growth inhibition incubated for 16 to 18 hrs by broth microdilution method
For the next test, the system named is Pseudomonas aeruginosa. Put plainly: Antibacterial activity against Pseudomonas aeruginosa ATCC 27853 assessed as bacterial growth inhibition incubated for 16 to 18 hrs by broth microdilution method. The settings on record: time 16-18 hrs. Type of test: functional. (In general: Broth dilution looks for growth in wells or tubes with falling amounts of substance.)

In test [2] the test system is Escherichia coli. The experiment in a line: Antibacterial activity against Escherichia coli ATCC 25922 assessed as bacterial growth inhibition incubated for 16 to 18 hrs by broth microdilution method. Type of test: functional. The settings on record: time 16-18 hrs.
The test system of test [3] is Acinetobacter baumannii. The experiment in a line: Antibacterial activity against Acinetobacter baumannii BAA 1605 assessed as bacterial growth inhibition incubated for 16 to 18 hrs by broth microdilution method. Type of test: functional. The settings on record: time 16-18 hrs.
The subject of another test is Klebsiella pneumoniae. Put plainly: Antibacterial activity against Klebsiella pneumoniae BAA-1705 assessed as bacterial growth inhibition incubated for 16 to 18 hrs by broth microdilution method. Type of test: functional. The settings on record: time 16-18 hrs.
The next test concerns Enterococcus. Put plainly: Antibacterial activity against Enterococcus NR 31884 assessed as bacterial growth inhibition incubated for 16 to 18 hrs by broth microdilution method. Type of test: functional. Particulars: time 16-18 hrs.
The subject of test [4] is Staphylococcus aureus. The experiment in a line: Antibacterial activity against Staphylococcus aureus ATCC 29213 assessed as time for increase by 1 log10CFU at 1XMIC incubated for 1 hr followed by drug wash-out and measured every single 1 hr. Type of test: functional.
The test system of test [5] is Staphylococcus aureus. Put plainly: Antibacterial activity against Staphylococcus aureus ATCC 29213 assessed as time for increase by 1 log10CFU at 10XMIC incubated for 1 hr followed by drug wash-out and measured every single 1 hr. Type of test: functional.
In test [6] the test system is Staphylococcus aureus. The experiment in a line: Antibacterial activity against Staphylococcus aureus ATCC 29213 assessed as time for post-antibiotic effect at 1XMIC incubated for 1 hr followed by drug wash-out and measured every single 1 hr. Type of test: functional.
Test [7] relates to Staphylococcus aureus. The experiment in a line: Antibacterial activity against Staphylococcus aureus ATCC 29213 assessed as time for post-antibiotic effect at 10XMIC incubated for 1 hr followed by drug wash-out and measured every single 1 hr. In kind it is functional.
Test [8] has as its system Staphylococcus aureus. Put plainly: Antibacterial activity against Staphylococcus aureus ATCC 29213 assessed as reduction in bacterial growth at sub-MIC incubated for 25 days. In kind it is functional, organism-based. The settings on record: time 25.0 day.
Test [9] relates to Escherichia coli. Put plainly: Antibacterial activity against Escherichia coli ATCC 25922 assessed as bacterial growth inhibition in presence of outermembrane permeabilizer, PMBN incubated for 16 to 18 hrs by broth microdilution method. The settings on record: time 16-18 hrs. Type of test: functional.
The subject of test [10] is Acinetobacter baumannii. Put plainly: Antibacterial activity against Acinetobacter baumannii BAA-1605 ssessed as bacterial growth inhibition in presence of outermembrane permeabilizer, PMBN incubated for 16 to 18 hrs by broth microdilution method. In kind it is functional. Particulars: time 16-18 hrs.
Test [11] concerns Staphylococcus aureus. Put plainly: Bactericidal activity against Staphylococcus aureus ATCC 29213 assessed as reduction in bacterial load at 1X MIC preincubated for 6 hrs followed by subculturing on TSA plate for 18 to 20 hrs by time-kill assay. In kind it is functional. The settings on record: time 24-26 hrs.
Test [12] has as its system Staphylococcus aureus. Put plainly: Antibiofilm activity against Staphylococcus aureus ATCC 29213 assessed as reduction in preformed bacterial biofilm at 1XMIC incubated for 24 hrs by crystal violet staining based microtiter plate reader assay. In kind it is functional.
Test [13] has as its system Staphylococcus aureus. The experiment in a line: Antibiofilm activity against Staphylococcus aureus ATCC 29213 assessed as reduction in preformed bacterial biofilm at 10XMIC incubated for 24 hrs by crystal violet staining based microtiter plate reader assay. In kind it is functional.
Test [14] relates to Staphylococcus aureus. Put plainly: Antibacterial activity against Staphylococcus aureus ATCC 29213 infected in mouse J774.A1 assessed as reduction in intracellular bacterial burden at 5XMIC incubated for 24 hrs followed by replating on TSA plate for 24 hrs by intracellular killing assay. The settings on record: time 48.0 hrs. Type of test: functional.

In the case of `CCCCCCCCCC(=O)N[C@@H](Cc1c[nH]c2ccccc12)C(=O)N[C@H](CC(N)=O)C(=O)N[C@@H](CC(=O)O)C(=O)N[C@@H]1C(=O)NCC(=O)N[C@@H](CCCN)C(=O)N[C@@H](CC(=O)O)C(=O)N[C@H](C)C(=O)N[C@@H](CC(=O)O)C(=O)NCC(=O)N[C@H](CO)C(=O)N[C@@H]([C@H](C)CC(=O)O)C(=O)N[C@@H](CC(=O)c2ccccc2N)C(=O)O[C@@H]1C`, the MIC in the test with Staphylococcus aureus [1] turned out to be 1 µg/mL (≈ 0.617 µM).
For `COc1cc2oc3c(c(=O)c2c(O)c1/C=C/C(C)C)C(C=C(C)C)Oc1cc(O)ccc1-3` (stereo not drawn), the MIC with Pseudomonas aeruginosa, in the test on Escherichia coli [2], with Acinetobacter baumannii [3], in the test on Klebsiella pneumoniae, in the test on Enterococcus and against Staphylococcus aureus [1] was above 64 µg/mL throughout.
With `CC(C)(O/N=C(\C(=O)N[C@@H]1C(=O)N2C(C(=O)[O-])=C(C[n+]3ccccc3)CS[C@H]12)c1csc(N)n1)C(=O)O` [CEFTAZIDIME], the MIC against Staphylococcus aureus [1] was found to be 16 µg/mL (≈ 29.3 µM).
Turning to `CC(C)=CC1Oc2cc(O)ccc2-c2oc3cc4c(c(O)c3c(=O)c21)C=CC(C)(C)O4` (stereo not drawn) [CUDRAFLAVONE A], the MIC in the test on Pseudomonas aeruginosa, in the test with Escherichia coli [2], in the test on Acinetobacter baumannii [3], with Klebsiella pneumoniae, with Enterococcus and against Staphylococcus aureus [1] was above 64 µg/mL each time.
For `C[C@H]1COc2c(N3CCN(C)CC3)c(F)cc3c(=O)c(C(=O)O)cn1c23.C[C@H]1COc2c(N3CCN(C)CC3)c(F)cc3c(=O)c(C(=O)O)cn1c23.O` [LEVOFLOXACIN], the MIC with Pseudomonas aeruginosa was determined as 0.5 µg/mL; in the test on Klebsiella pneumoniae it was 64 µg/mL; with Enterococcus, 0.25 µg/mL; against Staphylococcus aureus [1] it was 0.125 µg/mL. Besides, the Time in the test with Staphylococcus aureus [4] came to 2.5 h; in the test on Staphylococcus aureus [5] it was 3 h; with Staphylococcus aureus [6], 0.5 h; with Staphylococcus aureus [7] it was 1 h. In the test on Staphylococcus aureus [8], the result was inactive.
The compound `C[C@@H](O)[C@H]1C(=O)N2C(C(=O)O)=C(S[C@@H]3CN[C@H](C(=O)N(C)C)C3)[C@H](C)[C@H]12` [MEROPENEM] registered an MIC with Staphylococcus aureus [1] of 1 µg/mL (≈ 2.61 µM).
Same read-out and setting: in the case of `CN(C)c1ccc(O)c2c1C[C@H]1C[C@H]3[C@H](N(C)C)C(O)=C(C(N)=O)C(=O)[C@@]3(O)C(O)=C1C2=O` [MINOCYCLINE] it was 0.25 µg/mL (≈ 0.546 µM).
As for `Oc1cc(O)cc(/C=C/c2ccc(O)cc2O)c1` [OXYRESVERATROL], the MIC in the test with Pseudomonas aeruginosa, with Escherichia coli [2], with Acinetobacter baumannii [3], with Klebsiella pneumoniae, in the test with Enterococcus and against Staphylococcus aureus [1] was above 64 µg/mL throughout.
For the compound `CO[C@H]1/C=C/O[C@@]2(C)Oc3c(C)c(O)c4c(O)c(c(/C=N/N5CCN(C)CC5)c(O)c4c3C2=O)NC(=O)/C(C)=C\C=C\[C@H](C)[C@H](O)[C@@H](C)[C@@H](O)[C@@H](C)[C@H](OC(C)=O)[C@@H]1C` [RIFAMPIN], the MIC in the test on Escherichia coli [2] was found to be 8 µg/mL (≈ 9.72 µM); with Acinetobacter baumannii [3] it was 2 µg/mL (≈ 2.43 µM); in the test on Escherichia coli [9], 0.06 µg/mL; in the test on Acinetobacter baumannii [10], 0.03 µg/mL; against Staphylococcus aureus [1] it was 0.0078 µg/mL (≈ 0.00948 µM).
Take `CN[C@H](CC(C)C)C(=O)N[C@H]1C(=O)N[C@@H](CC(N)=O)C(=O)N[C@H]2C(=O)N[C@H]3C(=O)N[C@H](C(=O)N[C@H](C(=O)O)c4cc(O)cc(O)c4-c4cc3ccc4O)[C@H](O)c3ccc(c(Cl)c3)Oc3cc2cc(c3O[C@@H]2O[C@H](CO)[C@@H](O)[C@H](O)[C@H]2O[C@H]2C[C@](C)(N)[C@H](O)[C@H](C)O2)Oc2ccc(cc2Cl)[C@H]1O` [VANCOMYCIN]: the MIC in the test on Escherichia coli [2] is 512 µg/mL (≈ 353 µM); with Acinetobacter baumannii [3], 256 µg/mL (≈ 177 µM); with Escherichia coli [9], 128 µg/mL; in the test with Acinetobacter baumannii [10] it was 64 µg/mL. Further, the Activity in the test on Staphylococcus aureus [11] is given as 1 log10CFU/ml. Also, the outcome with Staphylococcus aureus [12] and in the test with Staphylococcus aureus [14] was inactive. For the same compound, the “inhibition (INH)” value in the test with Staphylococcus aureus [13] came to 7.7%. Further, the Time in the test on Staphylococcus aureus [4] was 3 h; in the test with Staphylococcus aureus [5], 3.5 h; in the test with Staphylococcus aureus [6], 1 h; in the test with Staphylococcus aureus [7], 1.5 h.
